“Also recorded” adds a separate entry of the source.

The text below walks through data of patent US20190185544A1, “COMPOSITIONS AND METHODS OF MODULATING ABETA PROTEIN” (University of South Florida, priority 2016, published 2019).

What all share (assay type): cell-based, Chinese hamster
One assay relates to p44/42 MAPK. The assay can be described thus: p44/42 MAPK phosphorylation in CHO/APPwt cell lysates (WB). The note with it: peptides 10 μM or apoE 10 μg/mL, 0 to 180 min.
Assay [1] concerns CHO/APPwt cells. The assay can be described thus: Aβ production in CHO/APPwt cells, treatment alone (Aβ1-40, 42 ELISA, 82E1 WB). The note with it: for Aβ production (Aβ1-40, 42): serum-free medium, 2 h (ELISA) or 16 h (WB). As to the method:
Chinese hamster ovary (CHO) cells overexpressing human wild-type amyloid precursor protein (APPwt) (CHO/APPwt cells) were cultured in 96-well plate at about 2×10^4/well in Dulbecco's modified Eagle's medium (DMEM) with 10% fetal bovine serum (FBS), 1 mM sodium pyruvate and 100 U/mL of penicillin/streptomycin for 18 hours.
CHO/APPwt cells were cultured in 96-well plate (about 2×10^4/well) in serum-free medium and treated with ApoE LDLR, FlagApoE LDLR (SEQ ID NO.: 1 with an N-terminal FLAG tag), BiotinApo LDLR (SEQ ID NO.: 1 with an N-terminal Biotin) and 3 lysinesApoE LDLR (3KApoE LDLR (SEQ ID NO.: 2)) at indicated doses for about 2 hours.
The conditioned media and cell lysates were prepared, and subjected to Aβ ELISA and protein assay.
CHO cells overexpressing human wild-type APP (CHO/APPwt) cells were cultured in 96-well plate at 2×10^4/well in Dulbecco's modified Eagle's medium (DMEM) with 10% fetal bovine serum (FBS), 1 mM sodium pyruvate and 100 U/mL of penicillin/streptomycin for 18 hours. […] 82E1 WB analyses as shown below the Aβ ELISA result histograms. The Aβ ELISA results are representative of three independent experiments with each condition triplicated and presented as mean±SD.
(residues 133-152, SEQ ID NO: 1)] as indicated for 2 and 16 hours (h). The conditioned media and cell lysates were analyzed by Aβ1-40, 42 ELISA (FIG. 10A), 82E1 WB analysis (FIG. 10B) and protein assay, respectively. In addition, (FIG. 10C) CHO/APPwt cells were cultured in 96-well plate (2×10^4/well) in serum-free DMEM and treated with FlagApoE-LBDP, BiotinApoE-LBDP and 3 lysineApoE-LBDP (3KApoE-LBDP) in comparing to ApoE-LBDP at indicated doses for 2 hours (h). […] (SEQ ID NO: 2); […]-[…] (SEQ ID NO: 10); Biotin-[…] (SEQ ID NO: 1 with an N-Terminal Biotin).
(§1) CHO cells engineered to express human wild-type APP (CHO/APPwt) or Swedish mutant APP (CHO/APPswe) were obtained. These cells were cultured in 96 or 24 well plates at 4×10^4 or 2×10^5 cells/well, respectively, in Dulbecco's modified Eagle's medium (DMEM) with 10% fetal bovine serum, 1 mM sodium pyruvate and 100 U/mL of penicillin/streptomycin (Invitrogen, Thermo Fisher Scientific). In addition, murine N2a cells transfected with APPwt (N2a/APPwt were obtained), SH-SY5Y cells transfected with APPswe and wild-type SH-SY5Y cells (ATCC, Manassas, Va.) were cultured as previously described^42. Primary hN2TM human neurons (Neuromics, Edina, Minn.) were cultured in hN2TM human neuron culture media and primary HCN2 human neurons (ATCC) were cultured in DMEM with 4 mM L-glutamine adjusted to contain 1.5 g/L sodium bicarbonate, 4.5 g/L glucose, fetal bovine serum (10%).
Aβ1-40, 42 and sAPPα from cell and brain homogenates were detected by Aβ1-40, 42 and sAPPα ELISA kits (IBL-America), strictly following the manufacturer's instructions^43,44.
WB analyses were performed as previously described^43,44. Briefly, 10% bicine/tris gel containing 8 M urea was used for separation of Aβ1-40, 42 species from brain homogenates or CHO cell conditioned media or lysates, followed by transfer to 0.2 μm pore-size nitrocellulose membrane (Bio-Rad, Hercules, Calif.). The membrane was boiled in PBS for 3 to 5 min before blocking to enhance sensitivity and then incubated with 82E1. For all other proteins detected by WB, 10% tris-SDS gels were used. Densitometry analysis was performed as previously described using a FluorS Multiimager with Quantity One™ software 43.
(In an ELISA, binding on a coated surface is turned into a signal by an enzyme label.)

Assay [2] relates to CHO/APPwt cells. The assay can be described thus: APP processing and cell surface protein expression in CHO/APPwt cells (ELISA, WB, biotinylation, flow cytometry, confocal microscopy). As to the method: In addition, full-length APP (f-APP, short and long exp, exposure), α/β-CTF and total APP in cell lysates were analyzed by WB using anti-C-terminal APP750/70 (pC-APP, left panel, FIG. 23C) and anti-N-terminal APP antibody (6E10, right panel, FIG. 23C). Cell lysates were also biotinylated and immunoprecipitated using Neutravidin beads and intracellular proteins obtained by Neutravidin depletion (intra) and cell surface proteins obtained by Neutravidin precipitation (cell surf) were analyzed for f-APP, LDLR and LRP1 by WB using 6E10, anti-LDLR and anti-LRP1 (FIG. 23D). Band density ratios of cell surf or intra to total f-APP was determined by densitometry analysis (FIG. 23E). Cellular membrane associated full-length APP was analyzed by flow cytometry and presented as means±s.d. median FL-1-A (FIG. 23F). […] Asterisk indicates P<0.05 compared with Ctrl as determined by t test.
In addition, some of the cells were biotinylated, cell lysates were immunoprecipitated using Neutravidin beads and cell surface (cell surf) proteins obtained by Neutravidin precipitation, intracellular (intra) proteins obtained by Neutravidin depletion and total proteins were analyzed for full-length APP by WB using pC-APP (pAPP751/770) (FIG. 27B). […]

A further assay concerns CHO/APPswe cells. The assay can be described thus: Aβ and β-CTF in CHO/APPwt compared with CHO/APPswe cells. The note with it: apoE4 0, 5, 10 μg/mL or 6KApoEp 0, 5, 10 μM, 2 h, serum-free medium. The method, then: as §1

With “ApoE3: human recombinant apolipoprotein E3 protein (BioVision)”, in the assay on p44/42 MAPK, the “p44/42 MAPK phosphorylation” value was “activated both p44/42 and p38 MAPK phosphorylation”. In the assay on CHO/APPwt cells [1], the sAPPα secretion result is given as “decreased sAPPα secretion” and the “Aβ production (Aβ1-40, 42)” value was “markedly promote amyloid β protein (Aβ) production”.
Regarding “ApoE4: human recombinant apolipoprotein E4 protein (BioVision)”, the “Aβ, β-CTF and sAPPα levels” value in the assay on CHO/APPwt cells [2] (6KApoEp 10 μM, apoE4 10 μg/mL, 2 h) was “markedly increased Aβ and β-CTF levels, while reducing sAPPα levels”. Besides, the “cell surface protein levels of LDLR or LRP1” value with CHO/APPwt cells [2] (absence or presence of β- or γ-secretase inhibitors) is listed as “did not alter cell surface protein levels of LDLR or LRP1”. The “p44/42 MAPK phosphorylation” value in the assay on p44/42 MAPK is “activated both p44/42 and p38 MAPK phosphorylation”. Besides, the “Aβ and β-CTF levels in CHO/APPwt compared with CHO/APPswe cells” value in the assay on CHO/APPswe cells is “enhanced Aβ and β-CTF levels much more in CHO/APPwt cells compared with CHO cells overexpressing APP with the Swedish mutation”. In the assay on CHO/APPwt cells [1], the sAPPα secretion entry is listed as “decreased sAPPα secretion” and the “Aβ production (Aβ1-40, 42)” value was “increased Aβ1-40, 42 production; also recorded: markedly promote amyloid β protein (Aβ) production”.
